Data published in US4886667A, “External preparation composition” (priority 1985, dated 1989).
Converted amounts (≈) assume the structure as drawn. Read-outs that look alike come from different tables or passages of the source.

Columns and labels:
[1] = test system: Clostridium perfringens (9 isolated strains); type: cell-based; conditions: 9 isolated strains of clostridium perfringens
Acute toxicity in mice = conditions: for LD50 / Mortalities (Dead/Treated): male mice; for LD50: 23040 min; for Mortalities (Dead/Treated): 16 days
[2] = test system: Microsporum gypseum IFO 8231; experiment: Minimum inhibitory concentration (MIC), agar dilution method, standard strains; type: cell-based; conditions: for MIC: Nannizzia gypsea, read-out: Minimum inhibitory concentration to standard strains
[3] = test system: Staphylococcus pyogenes ATCC 10389; experiment: as above; conditions: aerobic, 37° C., 48 hrs
[4] = test system: Trichophyton mentagrophytes IFO 5810; experiment: Antifungal activity in vivo by trichophytosis of guinea pig; conditions: 1% solution; for Fungal negativity index / Healing index: 0.1 ml once a day for 8 days, guinea pig trichophytosis
[5] = test system: Trichophyton rubrum IFO 5467; experiment: Minimum inhibitory concentration (MIC), agar dilution method, standard strains; type: cell-based; conditions: for MIC: read-out: Minimum inhibitory concentration to standard strains
[6] = test system: Fusobacterium nucleatum ATCC 25586; experiment: as above; type: cell-based; conditions: 37° C., 60 hrs; for MIC: ATCC25586, anaerobic
[7] = test system: Staphylococcus aureus ATCC 6538P; experiment: as above; conditions: for Minimum inhibitory concentration to standard strains: Staphylococcus aureus ATCC 6538P, aerobic, 37° C., 48 hrs; for MIC: Staphylococcus aureus, ATCC6538P, 48 h, read-out: Minimum inhibitory concentration to standard strains
[8] = test system: Corynebacterium acnes ATCC 11828; experiment: as above; type: cell-based; conditions: for MIC: Cutibacterium acnes, read-out: Minimum inhibitory concentration to standard strains
[9] = test system: Candida albicans ATCC 10261; experiment: as above; conditions: for Minimum inhibitory concentration to standard strains: yeast, Sabouraud medium; for MIC: ATCC10261, read-out: Minimum inhibitory concentration to standard strains
[10] = test system: Bacteroides fragilis RIMD 023001; experiment: as above; type: cell-based; conditions: 37° C., 60 hrs; for Minimum inhibitory concentration to standard strains: anaerobic; for MIC: RIMD023001, anaerobic
[11] = test system: Staphylococcus epidermidis ATCC 12228; experiment: as above; conditions: for Minimum inhibitory concentration to standard strains: Staphylococcus epidermidis ATCC 12228, aerobic, 37° C., 48 hrs; for MIC: Staphylococcus epidermidis, ATCC12228, 48 h, read-out: Minimum inhibitory concentration to standard strains
[12] = test system: Bacteroides fragilis (48 isolated strains); experiment: MIC against clinically isolated strains (cumulation percent); type: cell-based; conditions: for MIC: 60 h, read-out: range of effective concentration
[13] = test system: Trichophyton mentagrophytes IFO 5466; experiment: Minimum inhibitory concentration (MIC), agar dilution method, standard strains; type: cell-based; conditions: for MIC: read-out: Minimum inhibitory concentration to standard strains
[14] = test system: clinically isolated anaerobic bacteria; type: cell-based; conditions: 70 isolated strains of the tested bacteria
[15] = 48 isolated strains of Bacteroides fragilis, 100% efficiency stated for Ratanhiaphenol
[16] = IFO8231, Microsporum gypseum IFO 8231, aerobic, 168 hrs
[17] = IFO5467, Trichophyton rubrum IFO 5467, aerobic, 168 hrs
[18] = IFO5466, Trichophyton mentagrophytes IFO 5466, aerobic, 168 hrs
[19] = ATCC11828, Corynebacterium acnes ATCC 11828, anaerobic, 37° C., 60 hrs

Molecule: Ratanhiaphenol [F]
- range of effective concentration (100% efficiency) [1]: 3.13 to 12.5 µg/mL
- LD50 (Acute toxicity in mice; oral administration): 5000 mg/kg
- toxicity (Acute toxicity in mice; oral or subcutaneous single dose, mice): low
- abnormal sign (Acute toxicity in mice; oral or subcutaneous single dose, mice, 16 days observation): no abnormal sign was observed
- Mortalities (Dead/Treated) (Acute toxicity in mice; oral, 1 g/kg): 0/5
- Mortalities (Dead/Treated) (Acute toxicity in mice; oral, 5 g/kg): 2/5
- LD50 (Acute toxicity in mice; subcutaneous administration): > 5000 mg/kg
- Mortalities (Dead/Treated) (Acute toxicity in mice; subcutaneous, 1 g/kg): 0/5
- Mortalities (Dead/Treated) (Acute toxicity in mice; subcutaneous, 5 g/kg): 0/5
- Minimum inhibitory concentration to standard strains ([2]; Microsporum gypseum IFO 8231, aerobic, 168 hrs): 0.78 µg/mL
- Minimum inhibitory concentration to standard strains [3]: 0.10 µg/mL
- healing effect compared with 1% clotrimazole solution [4]: equivalent to that of 1% clotrimazole solution
- Fungal negativity index [4]: 81%
- Healing index [4]: 67%
- Minimum inhibitory concentration to standard strains ([5]; Trichophyton rubrum IFO 5467, aerobic, 168 hrs): 1.56 µg/mL
- Minimum inhibitory concentration to standard strains ([6]; anaerobic): 6.25 µg/mL
- Minimum inhibitory concentration to standard strains [7]: 0.39 µg/mL
- Minimum inhibitory concentration to standard strains ([8]; Corynebacterium acnes ATCC 11828, anaerobic, 37° C., 60 hrs): 6.25 µg/mL
- Minimum inhibitory concentration to standard strains [9]: > 10 µg/mL
- Minimum inhibitory concentration to standard strains [10]: 6.25 µg/mL
- Minimum inhibitory concentration to standard strains [11]: 0.39 µg/mL
- range of effective concentration [12, 15]: 1.56 to 6.25 µg/mL
- Minimum inhibitory concentration to standard strains ([13]; Trichophyton mentagrophytes IFO 5466, aerobic, 168 hrs): 1.56 µg/mL
- range of effective concentration (100% efficiency) [14]: 1.56 to 12.5 µg/mL

Molecule: C=CCCCCCCCCC(=O)O [Q, Undecylenic acid]
- MIC ([2]; IFO8231, 168 h): 6.25 µg/mL (≈ 33.9 µM)
- MIC ([5]; Trichophyton rubrum, IFO5467, 168 h): 12.5 µg/mL (≈ 67.8 µM)
- MIC [7]: > 1000 µg/mL
- MIC ([8]; ATCC11828, 60 h): 400 µg/mL (≈ 2170 µM)
- MIC [9]: 200 µg/mL (≈ 1090 µM)
- MIC [11]: > 1000 µg/mL
- MIC ([13]; Trichophyton mentagrophytes, IFO5466, 168 h): 12.5 µg/mL (≈ 67.8 µM)

Molecule: Cc1cccc(N(C)C(=S)Oc2ccc3ccccc3c2)c1 [P, Tolnaftate]
- MIC [2, 16]: 0.1 µg/mL (≈ 0.325 µM)
- MIC [5, 17]: 0.1 µg/mL (≈ 0.325 µM)
- MIC [6]: 200 µg/mL (≈ 651 µM)
- MIC [7]: > 1000 µg/mL
- MIC [9]: > 1000 µg/mL
- MIC [11]: > 1000 µg/mL
- MIC [13, 18]: 0.1 µg/mL (≈ 0.325 µM)

Molecule: CC1(C)S[C@@H]2[C@H](NC(=O)[C@H](C(=O)O)c3ccsc3)C(=O)N2[C@H]1C(=O)O [L, Ticarcillin]
- MIC [2, 16]: > 1000 µg/mL
- MIC [5, 17]: > 1000 µg/mL
- MIC [6]: 6.25 µg/mL (≈ 16.3 µM)
- MIC [7]: 3.13 µg/mL (≈ 8.14 µM)
- MIC [8, 19]: 50 µg/mL (≈ 130 µM)
- MIC [10]: 50 µg/mL (≈ 130 µM)
- MIC [11]: 6.25 µg/mL (≈ 16.3 µM)
- MIC [13, 18]: > 1000 µg/mL

Molecule: Cc1cc(O)ccc1C(C)C [N, Isopropylmethylphenol]
- Minimum inhibitory concentration to standard strains [3]: 100 µg/mL (≈ 666 µM)
- Minimum inhibitory concentration to standard strains [7]: 400 µg/mL (≈ 2660 µM)
- Minimum inhibitory concentration to standard strains [9]: 200 µg/mL (≈ 1330 µM)
- Minimum inhibitory concentration to standard strains [10]: 400 µg/mL (≈ 2660 µM)
- Minimum inhibitory concentration to standard strains [11]: 200 µg/mL (≈ 1330 µM)

Molecule: Clc1ccccc1C(c1ccccc1)(c1ccccc1)n1ccnc1 [Clotrimazole]
- Fungal negativity index [4]: 88%
- Healing index [4]: 60%

Molecule: CC1(C)S[C@@H]2[C@H](NC(=O)[C@H](NC(=O)c3cnc4cccnc4c3O)c3ccccc3)C(=O)N2[C@H]1C(=O)O [M, Apalcillin]
- MIC [2, 16]: > 1000 µg/mL
- MIC [5, 17]: > 1000 µg/mL
- MIC [6]: 12.5 µg/mL (≈ 24 µM)
- MIC [7]: 50 µg/mL (≈ 95.9 µM)
- MIC [8, 19]: 25 µg/mL (≈ 47.9 µM)
- MIC [10]: 50 µg/mL (≈ 95.9 µM)
- MIC [11]: 25 µg/mL (≈ 47.9 µM)
- MIC [13, 18]: > 1000 µg/mL

Molecule: CN(C)[C@@H]1C(=O)C(C(N)=O)=C(O)[C@@]2(O)C(=O)C3=C(O)c4c(O)cccc4[C@@](C)(O)[C@H]3C[C@@H]12 [R, Tetracycline]
- MIC ([12]; Bacteroides fragilis): 1.56 to 400 µg/mL (≈ 3.51 to 900 µM)

Molecule: COC1=CC(=O)C[C@@H](C)[C@]12Oc1c(Cl)c(OC)cc(OC)c1C2=O [O, Griseofulvin]
- MIC [2, 16]: 6.25 µg/mL (≈ 17.7 µM)
- MIC [5, 17]: 6.25 µg/mL (≈ 17.7 µM)
- MIC [7]: > 1000 µg/mL
- MIC [9]: > 1000 µg/mL
- MIC [10]: 200 µg/mL (≈ 567 µM)
- MIC [11]: > 1000 µg/mL
- MIC [13, 18]: 6.25 µg/mL (≈ 17.7 µM)

Molecule: C[CH2][Hg][S]c1ccccc1C(=O)[O-].[Na+] [Thimerosal]
- Fungal negativity index [4]: 100%
- Healing index [4]: 100%

Molecule: CC1=C(C(=O)O)N2C(=O)[C@@H](NC(=O)[C@H](N)c3ccccc3)[C@H]2SC1 [S, Cefalexin]
- MIC [12, 15]: 3.13 to 400 µg/mL (≈ 9.01 to 1150 µM)
